A word on the IC50: it is the concentration at which inhibition is half-maximal. A high value points to weaker potency in that assay.

This test addresses T1, B7-1/CD28 binding (Homo sapiens, UniProt P33681).
T1 sequence (P33681 35-242 limits assumed): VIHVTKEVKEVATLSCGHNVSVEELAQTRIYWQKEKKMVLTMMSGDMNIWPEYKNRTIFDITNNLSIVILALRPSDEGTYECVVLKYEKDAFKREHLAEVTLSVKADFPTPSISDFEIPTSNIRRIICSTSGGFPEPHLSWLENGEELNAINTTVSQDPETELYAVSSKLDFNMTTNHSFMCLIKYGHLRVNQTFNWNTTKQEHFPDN
Description: CD28/B7-1 ELISA (B7-1/CD28 binding inhibition). Conditions: CD28-Fc coated wells, B7-1-Fc-biotin/streptavidin-alkaline phosphatase detection complex, 1% DMSO. The procedure:
Evaluation of B7-1/CD28 Binding Inhibition for Test Compounds
Wells are coated with 300 ng CD28-Fc in carbonate buffer (pH 9.4) overnight at 4° C., blocked with 1% bovine serum albumin in tris-buffered saline (TBS) for 1 h at 22° C. and washed 3 times in TBS prior to assay. The detection complex is formed as follows: B7-1-Fc-biotin, prepared using NHS-LC-biotin (Pierce #21335) according to the manufacturers instructions (4.1 moles biotin/mole Fc), is added at 0.8 ug/ml to streptavidin-alkaline phosphatase (Caltag Sa1008 at 1:1000 in TBS. Gradient dilutions of test compound in dimethylsulfoxide (1% final) are added to this complex and incubated 30 min. at 22° C. Detection complex (+/−inhibitors) is then added to the CD28 coated wells for 25 min. at 22° C., washed 5 times with TBS, developed with the calorimetric substrate pNPP (Pierce #34045) in diethanolamine/MgCl2 buffer (pH 9.5) and read at 405 nm. The inhibition constant (IC50) is calculated by subtracting background binding and comparing to uninhibited (DMSO alone) controls. The inhibition constant represents the concentration of test compound required to achieve 50% inhibition.
On the technique in general: An ELISA detects its analyte on a solid surface through an enzyme-linked reagent.
In the case of `Cn1ncc2c3[nH]n(-c4cccc(F)c4)c(=O)c3c(-c3cncc(Br)c3)nc21` [Example 4, 4-(5-Bromo-3-pyridinyl)-2-(3-fluorophenyl)-6-methyl-1,6-dihydrodipyrazalo[3,4-b:3,4-d]pyridin-3(2H)-one], the IC50 came to 20 nM.

Turning to `COC(=O)c1ccc(-n2[nH]c3c(c(-c4cccc(Br)c4)nc4c3cnn4C)c2=O)cc1Cl` [Example 31], the IC50 amounted to 9 nM.

`Cn1ncc2c3[nH]n(-c4ccc(Cl)c(C(=O)O)c4)c(=O)c3c(-c3cccc(C(F)(F)F)c3)nc21` [Example 25]: the IC50 came out at 7 nM.

The compound `COC(=O)c1ccc(-n2[nH]c3c(c(-c4cccc(C(F)(F)F)c4)nc4c3cnn4C)c2=O)cc1F` [Example 37] came in with an IC50 of 12 nM.

Turning to `Cn1ncc2c3[nH]n(-c4ccc(F)cc4)c(=O)c3c(-c3cccc(C(F)(F)F)c3)nc21` [Example 39], the half-inhibitory concentration (IC50) amounted to 50 nM.

On to `Cn1ncc2c3[nH]n(-c4ccccc4F)c(=O)c3c(-c3cccc(C(F)(F)F)c3)nc21` [Example 41], for which the IC50 worked out at 400 nM.

`CCOc1ccc(-n2[nH]c3c(c(-c4cccc(C(F)(F)F)c4)nc4c3cnn4C)c2=O)nn1` [Example 23]: the IC50 amounted to 290 nM.

`Cn1ncc2c3[nH]n(-c4ccc(-c5ccccc5)cc4)c(=O)c3c(-c3cccc(C(F)(F)F)c3)nc21` [Example 57] had an IC50 of 39 nM.

Compound `Cc1cc(-n2[nH]c3c(c(-c4cccc(Br)c4)nc4c3cnn4C)c2=O)cc(C(F)(F)F)c1` [Example 12] yielded a 50% inhibitory concentration (IC50) of 190 nM.

Take `Cn1ncc2c3[nH]n(-c4nccc(C(F)(F)F)n4)c(=O)c3c(-c3cccc(C(F)(F)F)c3)nc21` [Example 45]: the 50% inhibitory concentration (IC50) is 1200 nM.

`Cn1ncc2c3[nH]n(-c4ccc(OCc5ccccc5)cc4)c(=O)c3c(-c3cccc(C(F)(F)F)c3)nc21` [Example 58] returned an IC50 of 25 nM.

On to `CCn1ncc2c3[nH]n(-c4ccc(F)cc4)c(=O)c3c(-c3cccc(C(F)(F)F)c3)nc21` [Example 67], for which the IC50 was 780 nM.

`Cn1ncc2c3[nH]n(-c4cccc(F)c4)c(=O)c3c(-c3cccc([S+](C)[O-])c3)nc21` (stereo not drawn) [Example 56] displayed a 50% inhibitory concentration (IC50) of 330 nM.

In turn, `CCOC(=O)c1scc(C)c1-n1[nH]c2c(c(-c3cccc(C(F)(F)F)c3)nc3c2cnn3C)c1=O` [Example 51] yielded an IC50 of 2100 nM.

Regarding `Cn1ncc2c3[nH]n(-c4ccc(I)cc4)c(=O)c3c(-c3cccc(C(F)(F)F)c3)nc21` [Example 16], the IC50 was 50 nM.

Values taken from patent US6900223B2, “Dihydrodipyrazolopyridinone inhibitors of B7-1” (Wyeth, priority 2002, dated 2005).
